Experimental data taken from patent US7919508B2, “3-piperidinylisochroman-5-ols as dopamine agonists” (Aventis Pharmaceuticals Inc., priority 2004, dated 2011).
Where a name gives a salt, the structure may show the parent alone.

Experiments:
[1] = biological target: T1, human dopamine D1 receptor (Homo sapiens, UniProt P21728); experiment: [3H]-SCH-23390 binding to cloned human dopamine D1 receptors (CHO cell membranes); conditions: competitive binding, [3H]-SCH-23390, cloned human D1 in CHO membranes; read-out: D1 affinity Ki
T1 construct: A 1.4 Kb Hind III to Xho I fragment was subcloned into the vector pMMLV; expressed in transfected cells; host or cells: CHO cells, clone CHO-D1M#9 (plasmid pHD1MMLV), membranes
T1 sequence (P21728 whole entry, the tested form may be a part): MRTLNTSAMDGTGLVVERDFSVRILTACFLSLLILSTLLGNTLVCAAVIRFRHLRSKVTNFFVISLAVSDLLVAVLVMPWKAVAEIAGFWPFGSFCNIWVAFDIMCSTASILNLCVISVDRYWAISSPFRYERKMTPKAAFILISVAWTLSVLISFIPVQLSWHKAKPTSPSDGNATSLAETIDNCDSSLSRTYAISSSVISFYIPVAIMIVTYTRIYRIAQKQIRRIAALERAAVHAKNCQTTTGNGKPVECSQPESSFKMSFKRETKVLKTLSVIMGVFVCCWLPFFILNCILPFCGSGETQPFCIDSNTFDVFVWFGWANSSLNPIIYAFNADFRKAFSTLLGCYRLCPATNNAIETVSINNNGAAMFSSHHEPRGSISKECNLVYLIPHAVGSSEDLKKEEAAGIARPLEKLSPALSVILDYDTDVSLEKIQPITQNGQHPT
Experimental: [^3H]-SCH-23390 Binding to Cloned Human Dopamine D1 Receptors
Determination of relative binding affinity of potential neuropsychiatric and other agents for the human dopamine D1 receptor.
The human D, cDNA was obtained from the laboratory of Dr. Marc Caron in the vector pCMV5. A 1.4 Kb Hind III to Xho I fragment was subcloned into the vector pMMLV. The plasmid pHD1MMLV was then sequenced completely. Transient transfections in COS-7 cells were performed and D1 specific binding was obtained. The construct pHD1MMLV was then transfected stably into CHO cells and 72 G418-resistant clones were isolated. High expressors were identified by mRNA dot blot analysis. Six high expressors were further characterized by binding and then clone CHO-D1M#9 was chosen for detailed pharmacological characterization. This clone was then grown in suspension culture for the purpose of obtaining enough protein to accommodate several months of screening.
B. Cell Culture Conditions
• 1. […] Cells are transferred to suspension culture when at least […] are available (this allows for 300,000 cells/ml in a 50 ml spinner flask; this is the ideal suspension density). Cells are removed from flasks with trypsin, spun down at 1000×G and resuspended the pellet in fresh medium: • 50% CHO-SFM-II+50% Ham's F12 w/10% FBS (final FBS conc. 5%)+400 μg/ml G418+1% P/S. • 3. After the transfer to suspension culture, growth is monitored and cell viability is assessed using trypan blue exclusion. Total and viable cell count on 5 sectors of the hemocytometer are recorded. When the viable cell density reaches 600,000 cell/ml, the volume is doubled. • 4. After 1 week of growth in the 50/50 medium, the cells are spun down and transferred to a new spinner flask and replaced with 75% CHO-SFM II/25% Ham's F12+10% FBS plus the pen-strep and G418. Thereafter every 3 days, the medium is replaced with new medium containing a decreasing amount of FBS as follows:
• 5. The final maintenance culturing medium is made up as follows: • A stock mixture of 10 ml of pen-strep, 0.5 ml of […] (active; final concentration: 200 μg/ml) G418 and 1 ml of FBS are mixed and filtered and refrigerated. A volume (11.5 ml) of this mixture is added to a freshly opened 1 L bottle of CHO-SFM II. C. Membrane Preparation
Cells are harvested into 250 ml centrifuge tubes and spun down at 1200×G. The medium is removed and 100 ml PBS (phosphate-buffered saline) is added to each centrifuge tube; cells are resuspended and spun down again. The PBS is removed and the final pellet is homogenized with a polytron on ice at a medium setting.
The membrane suspension is diluted in water and samples (10, 50 and 100 μl; q.s. to 100 μl with water) are diluted with 100 μl of 1% SDS. The sample is vortexed and allowed to stand for 5 min. Two aliquots each of the solubilized protein sample are placed in clean 13×100 test tubes for the assay. Instructions are followed as outlined in the BioRad DC protein determination kit (Catalog # 500-0112). OD readings that fall between 0.1-0.5 (mid-range of standard curve) should typically be used for calculations. Protein concentrations are calculated from a standard curve using bovine serum albumin as standard by linear regression and interpolation.
Following cell harvesting and protein determination, the homogenate is diluted with 10% DMSO to the correct volume based on Bmax and relative size of individual experiments to be conducted. The concentrated protein is stored in cryogenic vials in aliquots of 1-1.5 ml. Samples may be stored in −80° C. freezer or in liquid nitrogen.

[2] = biological target: human dopamine D2Long (D2L) receptors (Homo sapiens, UniProt P14416)
Sequence of human dopamine D2Long (D2L) receptors (P14416 whole entry): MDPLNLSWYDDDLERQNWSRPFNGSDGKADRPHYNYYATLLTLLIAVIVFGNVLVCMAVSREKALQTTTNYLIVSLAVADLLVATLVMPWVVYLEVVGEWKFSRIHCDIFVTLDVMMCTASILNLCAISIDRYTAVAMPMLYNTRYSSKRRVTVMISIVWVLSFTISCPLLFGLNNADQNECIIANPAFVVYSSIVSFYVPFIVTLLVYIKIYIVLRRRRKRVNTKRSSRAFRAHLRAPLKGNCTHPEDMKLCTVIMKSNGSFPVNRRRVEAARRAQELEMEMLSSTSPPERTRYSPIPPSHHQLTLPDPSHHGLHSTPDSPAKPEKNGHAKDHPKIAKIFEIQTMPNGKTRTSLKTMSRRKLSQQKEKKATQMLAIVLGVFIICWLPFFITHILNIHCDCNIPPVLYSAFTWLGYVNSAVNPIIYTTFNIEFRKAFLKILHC

Row | SMILES | Ki [1] | Ki [2]
1 | CNC[C@@H]1O[C@H](C2CCN(CC3CCCCC3)CC2)Cc2c1ccc(C)c2O [Example 96, (1R,3S)-3-(1-Cyclohexylmethyl-piperidin-4-yl)-6-methyl-1-methylaminomethyl-isochroman-5-ol dihydrochloride] | 265 nM | 552 nM
2 | Cc1ccc2c(c1O)C[C@@H](C1CCN(C(=O)OCc3ccccc3)CC1)O[C@H]2CN [Example 122, 4-((1R,3S)-1-Aminomethyl-5-hydroxy-6-methyl-isochroman-3-yl)-piperidine-1-carboxylic acid benzyl ester hydrochloride] | 92 nM | 751 nM
3 | Cc1ccc2c(c1O)C[C@@H](C1CCN(C(=O)Nc3ccccc3O)CC1)O[C@H]2CN [Example 127, 4-((1R,3S)-1-Aminomethyl-5-hydroxy-6-methyl-isochroman-3-yl)-piperidine-1-carboxylic acid (2-hydroxy-phenyl)-amide hydrochloride] | 105 nM | ≥ 10000 nM
4 | Cc1ccc2c(c1O)C[C@@H](C1CCN(C(=O)N(C)C)CC1)O[C@H]2CN [Example 132, 4-((1R,3S)-1-Aminomethyl-5-hydroxy-6-methyl-isochroman-3-yl)-piperidine-1-carboxylic acid dimethylamide hydrochloride] | 256 nM | ≥ 100000 nM
5 | Cc1ccc2c(c1O)C[C@@H](C1CCN(C(=O)N(C(C)C)C(C)C)CC1)O[C@H]2CN [Example 133, 4-((1R,3S)-1-Aminomethyl-5-hydroxy-6-methyl-isochroman-3-yl)-piperidine-1-carboxylic acid diisopropylamide hydrochloride] | 241 nM | ≥ 100000 nM
6 | Cc1ccc2c(c1O)C[C@@H](C1CCN(C(=O)N3CCOCC3)CC1)O[C@H]2CN [Example 134, [4-((1R,3S)-1-Aminomethyl-5-hydroxy-6-methyl-isochroman-3-yl)-piperidin-1-yl]-morpholin-4-yl-methanone hydrochloride] | 240 nM | ≥ 100000 nM
7 | CCN(CC)C(=O)N1CCC([C@@H]2Cc3c(ccc(C)c3O)[C@H](CN)O2)CC1 [Example 136, 4-((1R,3S)-1-Aminomethyl-5-hydroxy-6-methyl-isochroman-3-yl)-piperidine-1-carboxylic acid diethylamide hydrochloride] | 162 nM | ≥ 100000 nM
8 | Cc1ccc2c(c1O)C[C@@H](C1CCN(C(=O)N3c4ccccc4Sc4ccccc43)CC1)O[C@H]2CN [Example 137, [4-((1R,3S)-1-Aminomethyl-5-hydroxy-6-methyl-isochroman-3-yl)-piperidin-1-yl]-phenothiazin-10-yl-methanone hydrochloride] | 412 nM | 163 nM
9 | Cc1ccc2c(c1O)C[C@@H](C1CCN(C(=O)N3CCCCC3)CC1)O[C@H]2CN [Example 138, [4-((1R,3S)-1-Aminomethyl-5-hydroxy-6-methyl-isochroman-3-yl)-piperidin-1-yl]-piperidin-1-yl-methanone hydrochloride] | 198 nM | ≥ 100000 nM
10 | Cc1ccc2c(c1O)C[C@@H](C1CCN(S(=O)(=O)c3ccccc3)CC1)O[C@H]2CN [Example 141, (1R,3S)-1-Aminomethyl-3-(1-benzenesulfonyl-piperidin-4-yl)-6-methyl-isochroman-5-ol hydrochloride] | 193 nM | ≥ 100000 nM
11 | Cc1ccc2c(c1O)C[C@@H](C1CCN(S(=O)(=O)c3ccccc3C(F)(F)F)CC1)O[C@H]2CN [Example 143, (1R,3S)-1-Aminomethyl-6-methyl-3-[1-(2-trifluoromethyl-benzenesulfonyl)-piperidin-4-yl]-isochroman-5-ol hydrochloride] | 167 nM | 777 nM
12 | Cc1ccc2c(c1O)C[C@@H](C1CCN(S(=O)(=O)c3ccc(C(C)C)cc3)CC1)O[C@H]2CN [Example 145, (1R,3S)-1-Aminomethyl-3-[1-(4-isopropyl-benzenesulfonyl)-piperidin-4-yl]-6-methyl-isochroman-5-ol hydrochloride] | 146 nM | 288 nM
